In one data set the test system is Ras. Description: steady-state Ras levels, Western immunoblotting. Format: cell-based, human. The settings on record: 75 μM FTS, 48 hours, all cell lines, P<0.05. As to the method:
Unless otherwise indicated, cells were lysed 48 hours after being treated with lysis buffer, as described in Haklai, et al., supra. […] Protein bands were visualized by ECL and quantified by densitometry with Image Master VDS-CL (Amersham) using TINA 2.0 software (Ray Tests). To obtain reliable comparisons between replicated experiments for statistical analysis, a standardization procedure was used, in which the density of each given protein band as recorded with its specific Ab, was normalized. […] The standard average density was defined as 1.0, and each of the individually determined bands was related to this value. […] Actin cytoskeletal elements were labeled with rhodamine-phalloidin, and digital fluorescence images were collected on a Zeiss LSM 510 confocal microscope fitted with fluorescein and rhodamine filters, as described in Gana-Weisz, M., et al., supra. […]
For orientation: A western blot detects proteins with antibodies after separation by electrophoresis.

The subject of the next data set is T265P21 cells. Put plainly: cell growth, direct counting of cells, FTS dose-response. Format: cell-based. The settings on record: Homo sapiens, 72 h, grown three days, FTS 12.5-100 μM, means±SD, n=4, read-out: estimated IC50, decrease in cell number. As to the method: (§1) The human NF-1 MPNST cell lines ST88-14, T265P21 and 90-8 and the non-NF-1 human MPNST cell line STS26T were obtained from Dr. Nancy Ratner. T265P21, 90-8, and ST88-14 cells were maintained in RPMI/15% fetal calf serum (FCS) medium and STS26T cells were maintained in DMEM/10% FCS, as described in Weisz, B., et al., supra. Cells were plated at a density of 1×10^6 cells per 10-cm plate for biochemical and immunoblotting assays, 2.5×10^3 cells/well in 24-well plates for cell-growth assays, or on glass cover slips (5×10^4 cells per 35-mm dish) for labeling of actin cytoskeletal elements. The cells were incubated for 24 hours, treated with the indicated concentration of FTS or with the vehicle (0.1% DMSO) (control) for the times specified in each of the experiments, and then subjected to the various assays as described below. The effect of FTS on cell growth was estimated by direct counting of cells collected from each well, as described in Weisz, B., et al., supra.
(§2) To determine the effects of the Ras inhibitor FTS on the growth rates of the NF-1 cell lines ST88-14, 90-8, T265P21 and the non-NF-1 STS26T cells, the cells were grown for two days in the absence and in the presence of 50 μM FTS, and then photomicrographed. […] Additionally, cells were grown for three days and then detached, collected, and counted as described in Methods to determine dose-dependent inhibition by FTS.

Another data set relates to STS26T cells. The data set is described as above. Format: cell-based. The settings on record: Homo sapiens, STS-26T, 72 h, grown three days, FTS 12.5-100 μM, means±SD, n=4, read-out: estimated IC50, decrease in cell number. The protocol:
as §1, §2

A further data set has as its system 90-8 cells. The data set is described as above. Format: cell-based. The settings on record: Homo sapiens, 72 h, grown three days, FTS 12.5-100 μM, means±SD, n=4, read-out: estimated IC50, decrease in cell number. The protocol:
as §1, §2

A further data set relates to ST88-14 cells. The data set is described as above. As to conditions: Homo sapiens, 72 h, grown three days, FTS 12.5-100 μM, means±SD, n=4, read-out: estimated IC50, decrease in cell number. Format: cell-based. The protocol: as §1, §2
Another data set relates to Ras-GTP. Description: steady-state Ras-GTP, GST-RBD pull-down assay. Format: cell-based, human. As to conditions: 75 μM FTS, 48 hours, TS265P21, 90-8, and ST88-14 cells, P<0.03. The protocol:
Unless otherwise indicated, cells were lysed 48 hours after being treated with lysis buffer, as described in Haklai, et al., supra. […] Protein bands were visualized by ECL and quantified by densitometry with Image Master VDS-CL (Amersham) using TINA 2.0 software (Ray Tests). To obtain reliable comparisons between replicated experiments for statistical analysis, a standardization procedure was used, in which the density of each given protein band as recorded with its specific Ab, was normalized. […] The standard average density was defined as 1.0, and each of the individually determined bands was related to this value. […] Actin cytoskeletal elements were labeled with rhodamine-phalloidin, and digital fluorescence images were collected on a Zeiss LSM 510 confocal microscope fitted with fluorescein and rhodamine filters, as described in Gana-Weisz, M., et al., supra.
To determine whether the steady-state levels of active Ras in the MPNST cell lines correlated with neurofibromin deficiency, the GST-Ras binding domain of Raf-1 (RBD) pull-down assay and Western immunoblotting with anti-Ras Ab was performed. […] Thus, the relatively large amounts of Ras-GTP detected in the MPNST cell lines and the relatively small amounts in the non-NF-1 MPNST (FIG. 1D) correlated well with the observed neurofibromin deficiency (FIG. 1C). […]

The conditions of data set [1]: human, doses up to 1800 mg/day; cited from earlier work.

As to `CC(C)=CCC/C(C)=C/CC/C(C)=C/CSc1ccccc1C(=O)O` [FTS, S-farnesylthiosalicylic acid], in the data set on Ras, the “reduction in Ras levels” value is 15-30%. Moreover, the IC50 with T265P21 cells was 35 ± 7 µM; with STS26T cells it was 53 ± 10 µM; in the data set with 90-8 cells, 42 ± 9 µM; with ST88-14 cells, 42 ± 13 µM. The “reduction in steady-state levels of Ras-GTP” value in the data set on Ras-GTP was 25%-55%. Also, in data set [1], the dose-limiting toxicities entry is “no dose-limiting toxicities”.

For orientation: IC50 means the midpoint of a concentration-inhibition curve.
